As usually defined, the IC50 is the concentration needed to halve the response being measured. The melting point is the temperature of the solid-liquid transition.

Here are results for eleven compounds from publication PMC3933419, “Synthesis and Properties of a Selective Inhibitor of Homeodomain–Interacting Protein Kinase 2 (HIPK2)” (PLoS ONE, 2014).

Molecules are shown by their SMILES. Read-outs that look alike come from different tables or passages of the source.

For series [1], the target named is T1, HIPK2 (Homo sapiens, UniProt Q9H2X6).
T1 construct: The source of HIPK2 and of all of the other protein kinases used for specificity assays is as described elsewhere
T1 sequence (Q9H2X6 whole entry): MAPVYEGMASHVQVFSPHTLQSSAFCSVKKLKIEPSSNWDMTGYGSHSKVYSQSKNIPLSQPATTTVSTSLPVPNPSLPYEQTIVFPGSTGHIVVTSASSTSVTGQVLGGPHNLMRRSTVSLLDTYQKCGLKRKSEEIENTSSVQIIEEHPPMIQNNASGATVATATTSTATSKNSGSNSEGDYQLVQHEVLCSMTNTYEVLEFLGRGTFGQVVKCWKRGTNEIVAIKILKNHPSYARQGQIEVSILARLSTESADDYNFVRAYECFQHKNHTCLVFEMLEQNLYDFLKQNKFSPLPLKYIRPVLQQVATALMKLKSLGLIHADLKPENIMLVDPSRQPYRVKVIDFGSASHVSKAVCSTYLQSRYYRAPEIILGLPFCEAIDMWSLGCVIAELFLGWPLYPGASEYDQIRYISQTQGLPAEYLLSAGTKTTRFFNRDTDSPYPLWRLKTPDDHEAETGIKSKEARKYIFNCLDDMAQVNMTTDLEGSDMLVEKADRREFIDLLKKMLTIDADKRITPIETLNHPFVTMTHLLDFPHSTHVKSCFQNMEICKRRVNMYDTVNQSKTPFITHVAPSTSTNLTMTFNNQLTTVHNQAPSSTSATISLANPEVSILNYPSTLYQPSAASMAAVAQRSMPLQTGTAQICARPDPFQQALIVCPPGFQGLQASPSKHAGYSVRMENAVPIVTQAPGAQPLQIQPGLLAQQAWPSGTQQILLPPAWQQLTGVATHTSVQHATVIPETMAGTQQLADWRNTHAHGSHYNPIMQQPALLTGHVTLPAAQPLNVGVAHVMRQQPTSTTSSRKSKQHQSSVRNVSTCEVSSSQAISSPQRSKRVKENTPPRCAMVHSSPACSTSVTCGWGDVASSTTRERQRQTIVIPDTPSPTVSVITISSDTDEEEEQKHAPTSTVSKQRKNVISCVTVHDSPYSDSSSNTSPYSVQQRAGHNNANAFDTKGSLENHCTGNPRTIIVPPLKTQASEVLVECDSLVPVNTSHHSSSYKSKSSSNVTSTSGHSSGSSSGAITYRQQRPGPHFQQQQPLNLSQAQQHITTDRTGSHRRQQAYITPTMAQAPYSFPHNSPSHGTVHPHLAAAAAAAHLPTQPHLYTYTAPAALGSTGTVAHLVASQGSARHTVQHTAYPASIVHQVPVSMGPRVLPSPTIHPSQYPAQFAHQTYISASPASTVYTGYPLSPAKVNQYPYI
Kind of series: HIPK2 kinase inhibition assay (33P-ATP, peptide […]). The format is biochemical. The method, then:
The source of HIPK2 and of all of the other protein kinases used for specificity assays is as described elsewhere. […] The reaction was stopped by addition of 5 μl of 0.5 M orthophosphoric acid before spotting aliquots onto phosphocellulose filters. Filters were washed in 75 mM phosphoric acid (5-10 ml/each) four times and then once in methanol and dried before counting.

Series [2] concerns the target T2, CK2 (Rattus norvegicus, UniProt P19139).
T2 construct: Native CK2 and CK1 were purified from rat liver; from tissue; host or cells: rat liver
Kind of series: CK2 phosphorylation assay. The note with it: 20 µM ATP. The format is biochemical. The method, then: (§1) Native CK2 and CK1 were purified from rat liver.
(§2) PIM1, CK2, CK1 phosphorylation assays were performed following similar procedures used for HIPK2 except that preincubation was omitted. In detail, PIM1 activity was determined at 100 µM ATP concentration and in the presence of 30 µM synthetic peptide substrate […]. CK2 and CK1 activities were assayed in a buffer containing 50 mM Tris/HCl (pH 7.5), 100 mM NaCl, 12 mM MgCl2, 100 µM specific peptide substrate […] (for CK2), or 200 µM […] (for CK1) and 20 µM [γ-^33P]ATP (500–1000 c.p.m./pmol).

Series [3] concerns the target T3, PIM1 (Homo sapiens, UniProt P11309).
T3 construct: The source of HIPK2 and of all of the other protein kinases used for specificity assays is as described elsewhere
Kind of series: PIM1 phosphorylation assay. It counts as biochemical. Conditions: 100 µM ATP. The method, then: as §2

The subject of series [4] is CK1. The series is described as follows: CK1 phosphorylation assay. The format is biochemical, rat. Conditions: 20 µM ATP. The method, then: as §1, §2
A further series deals with T4, endogenous HIPK2 (Homo sapiens, UniProt Q9H2X6).
T4 construct: endogenous in cells; host or cells: HepG2
T4 sequence (Q9H2X6 whole entry): as above
The series is described as follows: Activity of HIPK2 immunoprecipitated from treated HepG2 cells. It counts as cell-based. The note with it: HepG2 cells, increasing concentrations; immunoprecipitated HIPK2. The method, then: HepG2 cells (human hepatocellular carcinoma) were cultured in Dulbecco's modified Eagle's medium (DMEM; Sigma) supplemented with 10% fetal calf serum, 2 mM L-glutamine, 100 unit/ml penicillin and 100 µg/ml streptomycin; CEM cells (human T lymphoblastoid cells) were cultured n RPMI-1640 (Sigma) with the same supplements. Cells were cultured in an atmosphere containing 5% CO2, at 37°C. Treatments with TBID were performed in the same medium but with 1% fetal calf serum; control cells were treated with the solvent (DMSO). Total cell lysates were prepared as in [29].
Alternatively, HIPK2 was immunoprecipitated with 2.5 µl anti-HIPK2 (Epitomics) from 350 µg of total lysate proteins deriving from HepG2 cells either treated or not with TBID following a protocol elsewhere described. An aspecific antibody was used as negative control. Immunoprecipitated HIPK2 activity was measured towards the specific peptide substrate ([…]) at 1.6 mM concentration, for 10 min at 30°C, under the same conditions described above for the in vitro kinase assay. Peptide radioactivity was measured after sample spotting on phospho-cellulose paper, washing and scintillation counting, as in [30], while the amount of HIPK2 immunoprecipitated was evaluated by WB.

The target of series [5] is T1, HIPK2. Details: method as in PMID 17850214. Conditions: 1 µM concentration; panel of 71 protein kinases; ref [9]; cited from earlier work.
In series [6] the test system is panel of 71 protein kinases. The note with it: 1 µM concentration, ref [9]; cited from earlier work.
Series [7] has as its target T1, HIPK2. Details: method as in PMID 18588507. Conditions: TBB and TBI values; ref [19]; cited from earlier work.
The target in series [8] is T3, PIM1. Set-up: method as in PMID 18588507. The note with it: TBB and TBI values; ref [19]; cited from earlier work.
In series [9] the test system is CK1. Set-up: method as in PMID 18588507. The note with it: TBB and TBI values; ref [19]; cited from earlier work.
For series [10], the system named is 70 PKs. Kind of series: Selectivity parameters (Lorenz curve, Gini coefficient, hit rate) of TBI. The format is biochemical. Conditions: 10 µM, from data published in ref [19]. The method, then: Lorenz curves were derived from the selectivity data. Gini coefficients and hit rates (expressing the percent of kinases inhibited >50% by a given compound) were calculated as described in [25].

The target of series [11] is T2, CK2. Set-up: method as in PMID 18588507. The note with it: read-out: IC50 for CK2; TBB and TBI values; ref [19]; cited from earlier work.
Series [12] deals with 70 PKs. Set-up: method as in PMID 21513497. The note with it: 10 µM TBI; ref [20]; cited from earlier work.

T2 sequence (P19139 whole entry): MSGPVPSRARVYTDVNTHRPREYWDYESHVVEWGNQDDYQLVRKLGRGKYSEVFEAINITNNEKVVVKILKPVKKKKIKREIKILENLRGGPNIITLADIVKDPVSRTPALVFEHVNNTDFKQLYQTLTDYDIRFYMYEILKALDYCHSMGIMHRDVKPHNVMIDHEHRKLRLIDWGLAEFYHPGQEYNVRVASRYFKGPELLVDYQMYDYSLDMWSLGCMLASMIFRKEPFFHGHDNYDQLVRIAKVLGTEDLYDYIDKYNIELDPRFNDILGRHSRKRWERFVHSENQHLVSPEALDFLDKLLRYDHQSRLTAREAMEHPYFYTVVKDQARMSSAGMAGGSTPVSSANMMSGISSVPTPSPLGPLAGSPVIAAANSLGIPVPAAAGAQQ
T2 sequence (P67874 whole entry partner): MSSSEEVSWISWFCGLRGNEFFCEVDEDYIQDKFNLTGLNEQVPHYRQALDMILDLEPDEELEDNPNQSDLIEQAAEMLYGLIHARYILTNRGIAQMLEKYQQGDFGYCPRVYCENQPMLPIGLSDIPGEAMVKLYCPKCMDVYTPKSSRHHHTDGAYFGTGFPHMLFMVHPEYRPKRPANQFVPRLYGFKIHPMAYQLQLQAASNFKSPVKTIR
T3 sequence (P11309 whole entry, species assumed): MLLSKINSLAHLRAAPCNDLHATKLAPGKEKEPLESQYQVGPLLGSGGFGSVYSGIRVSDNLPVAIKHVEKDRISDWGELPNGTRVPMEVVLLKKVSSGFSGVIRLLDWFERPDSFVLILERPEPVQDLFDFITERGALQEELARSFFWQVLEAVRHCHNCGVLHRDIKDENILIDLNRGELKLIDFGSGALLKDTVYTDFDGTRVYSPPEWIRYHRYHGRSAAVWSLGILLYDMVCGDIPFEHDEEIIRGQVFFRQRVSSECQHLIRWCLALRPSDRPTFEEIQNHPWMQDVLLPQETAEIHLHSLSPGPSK

Compound `O=C1c2c(Br)c(Br)c(Br)c(Br)c2C(=O)N1c1nccs1` [5b, 4,5,6,7-Tetrabromo-2-(thiazol-2-yl)isoindoline-1,3-dione] registered a melting point of 228 to 232 °C. The IC50 against HIPK2 [1] (20 µM ATP, in vitro) was 0.72 µM. Moreover, the half-maximal inhibitory concentration (IC50) against CK2 [2] amounted to 16 µM. Besides, the 50% inhibitory concentration (IC50) at PIM1 [3] amounted to 40 µM. Also, the 50% inhibitory concentration (IC50) in the series on CK1 [4] came to 9.3 µM.

`O=C1c2c(Br)c(Br)c(Br)c(Br)c2C(=O)N1c1nncs1` [5c, 4,5,6,7-Tetrabromo-2-(1,3,4-thiadiazol-2-yl)isoindoline-1,3-dione] returned a melting point of 310 to 311 °C. The concentration for half-maximal inhibition (IC50) against HIPK2 [1] (20 µM ATP, in vitro) is 2.6 µM. At CK2 [2], this compound showed an IC50 of 24 µM. Also, the half-maximal inhibitory concentration (IC50) against PIM1 [3] is greater than 40 µM. The compound further showed an IC50 with CK1 [4] greater than 40 µM.

`O=C1c2c(Br)c(Br)c(Br)c(Br)c2C(=O)N1c1ncns1` [5d, 4,5,6,7-Tetrabromo-2-(1,2,4-thiadiazol-5-yl)isoindoline-1,3-dione] had a melting point of 325 to 326 °C. This compound also showed an IC50 against HIPK2 [1] (20 µM ATP, in vitro) of 2.5 µM. The IC50 at CK2 [2] stood at 35 µM. Further, the IC50 on PIM1 [3] was greater than 40 µM. In the series on CK1 [4], this compound came in with an IC50 greater than 40 µM.

Turning to `O=C1c2c(Br)c(Br)c(Br)c(Br)c2C(=O)N1c1ccn[nH]1` [5e, 4,5,6,7-Tetrabromo-2-(1H-pyrazol-5-yl)isoindoline-1,3-dione], the melting point is 333 to 334 °C (dec.). Besides, at HIPK2 [1] (20 µM ATP, in vitro), the IC50 was greater than 40 µM. Moreover, the IC50 against CK2 [2] worked out at 23 µM. For the same compound, at PIM1 [3], the IC50 is greater than 40 µM. Besides, in the series with CK1 [4], the IC50 is greater than 40 µM. Besides, at endogenous HIPK2, the “endogenous HIPK2 activity upon cell treatment” value is given as “not”.

Regarding `Cc1cc(N2C(=O)c3c(Br)c(Br)c(Br)c(Br)c3C2=O)[nH]n1` [5f, 4,5,6,7-Tetrabromo-2-(3-methyl-1H-pyrazol-5-yl)isoindoline-1,3-dione], the melting point lay in the range of 331 to 332 °C. This compound also registered an IC50 against HIPK2 [1] (20 µM ATP, in vitro) greater than 40 µM. Besides, on CK2 [2], the IC50 is greater than 40 µM. The compound also gave an IC50 at PIM1 [3] greater than 40 µM. In addition, the IC50 in the series with CK1 [4] is greater than 40 µM.

For the compound `O=C1c2c(Br)c(Br)c(Br)c(Br)c2C(=O)N1c1ncn[nH]1` [5g, 4,5,6,7-Tetrabromo-2-(1H-1,2,4-triazol-5-yl)isoindoline-1,3-dione], the melting point was greater than 360 °C. Further, at HIPK2 [1] (20 µM ATP, in vitro), half-maximal inhibition (IC50) required 22.7 µM. Further, it took 25 µM to reach half-maximal inhibition against CK2 [2] (IC50). Moreover, at PIM1 [3], the IC50 was greater than 40 µM. In the series on CK1 [4], this compound had an IC50 greater than 40 µM.

With `O=C1c2c(Br)c(Br)c(Br)c(Br)c2C(=O)N1c1ccon1` [5h, 4,5,6,7-Tetrabromo-2-(isoxazol-3-yl)isoindoline-1,3-dione], the melting point lay in the range of 290 to 293 °C. The compound further gave an IC50 against HIPK2 [1] (20 µM ATP, in vitro) of 23.6 µM. Moreover, the concentration for half-maximal inhibition (IC50) at CK2 [2] is greater than 40 µM. Also, at PIM1 [3], the IC50 is greater than 40 µM. Moreover, the IC50 with CK1 [4] is greater than 40 µM.

The compound `O=C1c2c(Br)c(Br)c(Br)c(Br)c2C(=O)N1c1cnccn1` [5i, 4,5,6,7-Tetrabromo-2-(pyrazin-2-yl)isoindoline-1,3-dione] returned a melting point of 272 to 275 °C. At HIPK2 [1] (20 µM ATP, in vitro), inhibition was half-maximal at 3.62 µM (IC50). Further, the IC50 against CK2 [2] is greater than 40 µM. This compound also yielded an IC50 on PIM1 [3] greater than 40 µM. This compound also yielded an IC50 with CK1 [4] greater than 40 µM.

Regarding `C[S+]([O-])c1ccc(-c2nc(-c3ccncc3)c(-c3ccc(F)cc3)[nH]2)cc1` (stereo not drawn) [SB203580], the “effect on HIPK2 activity” value on HIPK2 [1] (up to 40 µM concentration) is “not appreciably affecting”. The “inhibition of HIPK2” value at HIPK2 [5] was 14%. Also, the “number of protein kinases inhibited >60%” value in series [6] was 6.

As for `Brc1c(Br)c(Br)c2[nH]nnc2c1Br` [TBB, 4,5,6,7-tetrabromobenzotriazole], the IC50 is 5.3 µM on HIPK2 [7], 1.04 µM at PIM1 [8] and greater than 40 µM in the series with CK1 [9].

For the compound `Brc1c(Br)c(Br)c2[nH]cnc2c1Br` [TBI], the IC50 was 1 µM at HIPK2 [1] (TBI value given in the text); 0.7 µM at HIPK2 [7]; 0.6 µM at CK2 [11]; 0.115 µM on PIM1 [8]; 15 µM in the series on CK1 [9]. The Gini coefficient in the series on 70 PKs [10] was found to be 0.310. The “number of kinases inhibited >90%” value in the series on 70 PKs [12] is reported as 10.
